The term IC50 denotes the concentration that gives 50% inhibition.

The assay relates to THP1 cells (LPS induced TNF release). In words: Lipopolysaccharide-Activated THP1 Cell TNF Production Assay. As to conditions: Homo sapiens, THP-1; THP1 cells, bacterial LPS, secreted TNF-α after 3 h at 37° C.; read-out: IC50 values in the THP1 cell assay (LPS induced TNF release). In kind it is cell-based. As for the experimental part:
Lipopolysaccharide-Activated THP1 Cell TNF Production Assay
THP1 cells are resuspended in fresh THP1 media (RPMI 1640, 10% heat-inactivated FBS, 1×PGS, 1×NEAA, plus 30 μM βME) at a concentration of 1E6/mL. One hundred microliters of cells per well are plated in a polystyrene 96-well tissue culture. One microgram per mL of bacterial LPS is prepared in THP1 media and is transferred to the wells. Test compounds are dissolved in 100% DMSO and are serially diluted 3 fold in a polypropylene 96-well microtiter plate (drug plate). HI control and LO control wells contain only DMSO. One microliter of test compound from the drug plate followed by 10 μL of LPS are transferred to the cell plate. The treated cells are induced to synthesize and secrete TNF-α at 37° C. for 3 h. Forty microliters of conditioned media are transferred to a 96-well polypropylene plate containing 110 μL of ECL buffer (50 mM Tris-HCl pH 8.0, 100 mM NaCl, 0.05% Tween 20, 0.05% NaN3 and 1% FBS) supplemented with 0.44 nM MAB610 monoclonal Ab (R&D Systems), 0.34 nM ruthenylated AF210NA polyclonal Ab (R&D Systems) and 44 μg/mL sheep anti-mouse M280 Dynabeads (Dynal). After a 2 h incubation at RT with shaking, the reaction is read on the ECL M8 Instrument (IGEN Inc.). A low voltage is applied to the ruthenylated TNF-α immune complexes, which in the presence of TPA (the active component in Origlo), results in a cyclical redox reaction generating light at […]. The amount of secreted TNF-α in the presence of compound compared with that in the presence of DMSO vehicle alone (HI control) is calculated using the formula: % control (POC)=(cpd−average LO)/(average HI−average LO)*100. Data (consisting of POC and inhibitor concentration in μM) is fitted to a 4-parameter equation (y=A+((B−A)/(1+((×/C)ôD))), where A is the minimum y (POC) value, B is the maximum y (POC), C is the x (cpd concentration) at the point of inflection and D is the slope factor) using a Levenburg-Marquardt non-linear regression algorithm.

Molecules are shown by their SMILES. Some results are limits rather than exact numbers.

With `CN(c1ccnc(NC(C)(C)CNC(=O)OC(C)(C)C)n1)c1ccnc(-c2ccccc2)n1` [Example 26, tert-Butyl 2-methyl-2-(4-(methyl(2-phenylpyrimidin-4-yl)amino)pyrimidin-2-yl-amino)propylcarbamate], the concentration for half-maximal inhibition (IC50) was at most 20 µM. Turning to `CN(c1ccnc(NC(C)(C)CN)n1)c1ccnc(-c2ccccc2)n1` [Example 27, N^2-(1-Amino-2-methylpropan-2-yl)-N^4-methyl-N^4-(2-phenylpyrimidin-4-yl)-pyrimidine-2,4-diamine], the IC50 is at most 20 µM. On to `C[C@H](N)c1ccc(CCNc2nccc(N(C)c3ccnc(-c4ccccc4)n3)n2)cc1` [Example 28, (S)-N^2-(4-(1-Aminoethyl)phenethyl)-N^4-methyl-N^4-(2-phenylpyrimidin-4-yl)-pyrimidine-2,4-diamine], for which the IC50 was at most 20 µM. Regarding `C[C@@H](Cc1cccc(C(C)(C)N)c1)Nc1nccc(N(C)c2ccnc(-c3ccccc3)n2)n1` [Example 29, (S)-N^2-(1-(3-(2-Aminopropan-2-yl)phenyl)propan-2-yl)-N^4-methyl-N^4-(2-phenylpyrimidin-4-yl)pyrimidine-2,4-diamine], the IC50 was at most 20 µM. The value for `CN(c1ccnc(N[C@@H](CCO)c2ccccc2)n1)c1ccnc(-c2ccccc2)n1` [Example 30, (S)-3-(4-(Methyl(2-phenylpyrimidin-4-yl)amino)pyrimidin-2-ylamino)-3-phenylpropan-1-ol] was at most 20 µM; that for `CN(c1ccnc(N[C@H](CCO)c2ccccc2)n1)c1ccnc(-c2ccccc2)n1` [Example 31, (R)-3-(4-(Methyl(2-phenylpyrimidin-4-yl)amino)pyrimidin-2-ylamino)-3-phenylpropan-1-ol] was at most 20 µM.

On to `Cc1cc(N(C)c2ccnc(-c3ccccc3)n2)nc(NC2CCC(N)CC2)n1` (stereo not drawn) [Example 33, N2-((1r,4r)-4-Aminocyclohexyl)-N4,6-dimethyl-N4-(2-phenylpyrimidin-4-yl)pyrimidine-2,4-diamine], for which the 50% inhibitory concentration (IC50) is at most 20 µM.

Turning to `Cc1cc(N(C)c2ccnc(-c3ccccc3)n2)nc(N[C@@H](C)Cc2cccc(CNC(=O)[C@H](C)N)c2)n1` [Example 35, (S)-N-((S)-3-((S)-2-(4-Methyl-6-(methyl(2-phenylpyrimidin-4-yl)amino)pyrimidin-2-ylamino)propyl)benzyl)-2-aminopropanamide], the IC50 was at most 20 µM. The result for `Cc1cc(N(C)c2ccnc(-c3ccccc3)n2)nc(N[C@@H](C)Cc2cccc([C@@H](C)N)c2)n1` [Example 36, N^2-((S)-1-(3-((R)-1-Aminoethyl)phenyl)propan-2-yl)-N^4,6-dimethyl-N^4-(2-phenylpyrimidin-4-yl)pyrimidine-2,4-diamine] reads at most 20 µM; that for `CN(c1ccnc(N[C@H](Cc2ccccc2)C(N)=O)n1)c1ccnc(-c2ccccc2)n1` [Example 39], at most 20 µM; that for `C[C@H](N)c1cccc(C[C@H](C)Nc2nccc(N(C)c3ccnc(-c4ccccc4)n3)n2)c1` [Example 40, N^2-((S)-1-(3-((S)-1-Aminoethyl)phenyl)propan-2-yl)-N^4-methyl-N^4-(2-phenyl-pyrimidin-4-yl)pyrimidine-2,4-diamine], at most 20 µM.

Turning to `C[C@@H](Cc1cc(C#N)ccc1Cl)Nc1nccc(N(C)c2ccnc(-c3ccccc3)n2)n1` [Example 41, (S)-4-Chloro-3-(2-(4-(methyl(2-phenylpyrimidin-4-yl)amino)pyrimidin-2-ylamino)-propyl)benzonitrile], the IC50 was at most 20 µM. The value for `C[C@@H](Cc1cc(CN)ccc1Cl)Nc1nccc(N(C)c2ccnc(-c3ccccc3)n2)n1` [Example 42, (S)-N^2-(1-(5-(Aminomethyl)-2-chlorophenyl)propan-2-yl)-N^4-methyl-N^4-(2-phenyl-pyrimidin-4-yl)pyrimidine-2,4-diamine] was at most 20 µM. Take `CN(c1ccnc(NC2CCN(C(=O)CN)CC2)n1)c1ccnc(-c2ccccc2)n1` [Example 43, 2-Amino-1-(4-(4-(methyl(2-phenylpyrimidin-4-yl)amino)pyrimidin-2-ylamino)-piperidin-1-yl)ethanone]: the IC50 was at most 20 µM. On to `C[C@@H](N)CC(=O)N1CCC(Nc2nccc(N(C)c3ccnc(-c4ccccc4)n3)n2)CC1` [Example 44, (R)-3-Amino-1-(4-(4-(methyl(2-phenylpyrimidin-4-yl)amino)pyrimidin-2-ylamino)-piperidin-1-yl)butan-1-one], for which the IC50 was at most 20 µM. Turning to `CN(c1ccnc(N[C@H](Cc2ccccc2)C(=O)O)n1)c1ccnc(-c2ccccc2)n1` [Example 45, (R)-2-(4-(Methyl(2-phenylpyrimidin-4-yl)amino)pyrimidin-2-ylamino)-3-phenyl-propanoic acid], the IC50 is at most 20 µM. With `CNC(=O)[C@@H](Cc1ccccc1)Nc1nccc(N(C)c2ccnc(-c3ccccc3)n2)n1` [Example 46, (R)-N-Methyl-2-(4-(methyl(2-phenylpyrimidin-4-yl)amino)pyrimidin-2-ylamino)-3-phenylpropanamide], the IC50 is at most 20 µM. With `CN(c1ccnc(N[C@@H](CN)Cc2ccccc2)n1)c1ccnc(-c2ccccc2)n1` [Example 48, (R)-N^2-(1-Amino-3-phenylpropan-2-yl)-N^4-methyl-N^4-(2-phenylpyrimidin-4-yl)pyrimidine-2,4-diamine], the IC50 was at most 20 µM. With `CC(C)NC[C@@H](Cc1ccccc1)Nc1nccc(N(C)c2ccnc(-c3ccccc3)n2)n1` [Example 49, (R)-N^2-(3-(Isopropylamino)-1-phenylpropan-2-yl)-N^4-methyl-N^4-(2-phenyl-pyrimidin-4-yl)pyrimidine-2,4-diamine], the IC50 is at most 20 µM.

With `CN(c1ccnc(N[C@@H](CNCCN)Cc2ccccc2)n1)c1ccnc(-c2ccccc2)n1` [Example 50, (R)-N^2-(3-(2-Aminoethylamino)-1-phenylpropan-2-yl)-N^4-methyl-N^4-(2-phenyl-pyrimidin-4-yl)pyrimidine-2,4-diamine], the IC50 is at most 20 µM. `CN(c1ccnc(N[C@@H](CNC(=O)CN)Cc2ccccc2)n1)c1ccnc(-c2ccccc2)n1` [Example 52, (R)-2-Amino-N-(2-(4-(methyl(2-phenylpyrimidin-4-yl)amino)pyrimidin-2-ylamino)-3-phenylpropyl)acetamide]: the IC50 is at most 20 µM. With `CN(c1ccnc(N[C@H](Cc2ccccc2)CN2CCOCC2)n1)c1ccnc(-c2ccccc2)n1` [Example 53, (R)-N^4-methyl-N^2-(3-morpholino-1-phenylpropan-2-yl)-N^4-(2-phenylpyrimidin-4-yl)pyrimidine-2,4-diamine], the IC50 is at most 20 µM. The value for `CN(c1ccnc(N[C@@H](CCN2CCOCC2)Cc2ccccc2)n1)c1ccnc(-c2ccccc2)n1` [Example 54, (R)-N^4-Methyl-N^2-(4-morpholino-1-phenylbutan-2-yl)-N^4-(2-phenylpyrimidin-4-yl)pyrimidine-2,4-diamine] was at most 20 µM; that for `CN(c1ccnc(NCCc2ccccc2Cl)n1)c1nccc(C(C)(C)C)n1` [Example 55, N^2-(2-Chlorophenethyl)-N^4-(4-tert-butylpyrimidin-2-yl)-N^4-methylpyrimidine-2,4-diamine] was at most 20 µM; that for `CN(c1ccnc(N[C@@H](CCN)Cc2ccccc2)n1)c1ccnc(-c2ccccc2)n1` [Example 57, (R)-N^2-(4-Amino-1-phenylbutan-2-yl)-N^4-methyl-N^4-(2-phenylpyrimidin-4-yl)pyrimidine-2,4-diamine] was at most 20 µM.

Turning to `CC(C)NCC[C@@H](Cc1ccccc1)Nc1nccc(N(C)c2ccnc(-c3ccccc3)n2)n1` [Example 58, (R)-N^2-(4-(Isopropylamino)-1-phenylbutan-2-yl)-N^4-methyl-N^4-(2-phenylpyrimidin-4-yl)pyrimidine-2,4-diamine], the IC50 was at most 20 µM. As for `CN(c1ccnc(N[C@@H](CCNC2CC2)Cc2ccccc2)n1)c1ccnc(-c2ccccc2)n1` [Example 59, (R)-N^2-(4-(Cyclopropylamino)-1-phenylbutan-2-yl)-N^4-methyl-N^4-(2-phenyl-pyrimidin-4-yl)pyrimidine-2,4-diamine], the IC50 was at most 20 µM. Turning to `CC(C)[C@H](CC(=O)N1CCOCC1)Nc1nccc(N(C)c2ccnc(-c3ccccc3)n2)n1` [Example 61], the IC50 is at most 20 µM. The result for `CC(C)[C@H](CCN1CCOCC1)Nc1nccc(N(C)c2ccnc(-c3ccccc3)n2)n1` [Example 62, (S)-N^4-Methyl-N^2-(4-methyl-1-morpholinopentan-3-yl)-N^4-(2-phenylpyrimidin-4-yl)pyrimidine-2,4-diamine] reads at most 20 µM. Consider `CN(c1ccnc(NCCc2cccnc2)n1)c1nc(-c2ccccc2)ncc1Br` [Example 63, N^4-(5-Bromo-2-phenylpyrimidin-4-yl)-N^4-methyl-N^2-(2-(pyridin-3-yl)ethyl)-pyrimidine-2,4-diamine], for which the concentration for half-maximal inhibition (IC50) is at most 20 µM.
